Assay results as given in US20120122791A1, “SUBSTRATE FOR CARTILAGE CULTIVATION USING ARTIFICIAL COLLAGEN, AND METHOD FOR CARTILAGE REGENERATION TREATMENT USING THE SUBSTRATE” (JNC CORPORATION, priority 2009, published 2012).

Experiments:
[1] = tested on: cartilage defect model; assay: Cartilage regeneration by intraarticular administration in cartilage defect model (modified ICRS score, Safranin-0 staining, type 2 collagen immunostaining); type: in vivo, New Zealand white domestic rabbits; conditions: for macroscopic observation of knee joints: collected Week 7; for Safranin-0-stained area ratio compared to control group / Safranin-0 stained area compared to control group / type 2 collagen antibody-immunostained area compared to control group / type 2 collagen antibody-immunostained area ratio compared to control group: intraarticular
Description: A cartilage defect with a diameter of 5 mm was made on the patellofemoral joint of each of 18 knees of 9 New Zealand white domestic rabbits (22 week-old, 3.4 to 3.8 kg) after anesthesia, and further, a wound was sutured to prepare a cartilage defect model (Week 0). The 18 knees were divided into 3 groups, and on Week 1, Week 3, and Week 5, physiological saline was administered for a control group, and an intraarticular injection (0.1 ml/kg) was performed for an artificial collagen aqueous solution administration group. After that, knee joints were collected on Week 7. The ICRS score in Table 4 below is an evaluation method generally used when cartilage grafting to a cartilage defect is performed. The inventors of the present invention adopted, as an evaluation method in the case of administering a medicament without performing cartilage grafting, a modified ICRS score, which is an evaluation method involving using two items of “Degree of defect repair” and “Macroscopic appearance” and performing evaluation with a total score of 0 to 8. […] As recognized from the result of modified ICRS score described in FIG. 12, cartilage regeneration could be achieved by the intraarticular administration of the artificial collagen aqueous solution as the substrate for cartilage cultivation of the present invention. It should be noted that the results with a modified ICRS score are expressed as an average of scores of 6 knees for the control group, an average of 6 knees for the 0.1% (W/V) group, and an average of 6 knees for the 0.5% (W/V) group. In addition, a Mann-Whitney U test was used for statistics. […] The stained areas of the 0.1% (W/V) artificial collagen administration group and the 0.5% (W/V) artificial collagen administration group were larger compared to the stained area of the control group. In particular, a proteoglycan was present in a large amount. In addition, the stained area ratios of the 0.1% (W/V) artificial collagen administration group and the 0.5% (W/V) artificial collagen administration group were larger compared to the stained area ratio of the control group. […] The stained areas of the 0.1% (W/V) artificial collagen administration group and the 0.5% (W/V) artificial collagen administration group were larger compared to the stained area of the control group. In addition, the stained area ratios of the 0.1% (W/V) artificial collagen administration group and the 0.5% (W/V) artificial collagen administration group were larger compared to the stained area ratio of the control group.

[2] = tested on: type 2 collagen mRNA; assay: Type 2 collagen mRNA amount in cartilage cells by addition of artificial collagen aqueous solution (real-time PCR); type: cell-based, New Zealand white rabbits; conditions: relative to 0% defined as 1
Description: (§1) Shoulder joints and knee joints were extirpated from 5 New Zealand white rabbits (male, 8- to 9 week-old), and only a cartilage layer was excised and sampled with a surgical knife. After washing with a sterilized PBS solution, pronase was added to 25 ml of Dulbecco's Modified Eagle's medium+gentacin (25 μg/ml) at a concentration of 0.4% (W/V), and incubation was performed at 37° C. for 2 hours. The solution was supplemented with collagenase at a concentration of 0.025% (W/V), and incubated at 37° C. overnight. The resulting solution was washed to collect cartilage cells. After that, the cartilage cells were seeded into a dish with a diameter of 90 mm at 1 to 2×10^6 cells/dish, and a medium exchange was performed once every 3 days. At the time point where the cells became confluent, subcultivation was performed only once. The following experiments were performed by using cells which had been subcultivated once. Further, the composition of a cultivation medium is as described below.
(§2) Cartilage cells in a semi-confluent state were detached from a dish by a tripsin-EDTA solution treatment, supplemented with a cultivation medium, and then washed by centrifugation. After that, the cells were seeded into a 12-well plate at 3×10^5 cells/well, and cultivation was started under conditions of 37° C. and 5% CO2.
(§3) At 24 hours after the start of the cultivation, a 1% (W/V) artificial collagen aqueous solution was diluted with a cultivation medium to prepare 0.10, 0.20, 0.30, 0.40, and 0.50% (W/V) artificial collagen aqueous solutions. Then, cultivation was performed for 4, 7, 14, and 21 days. It should be noted that a 0% (W/V) artificial collagen aqueous solution was used as a control.
(§4) After the completion of the above-mentioned cultivation, the cartilage cells were collected, and RNA extraction was performed by using RNeasy (registered trademark) Mini Kit (QIAGEN). A reverse transcription reaction was performed by using QuantiTect (registered trademark) Reverse Transcription Kit (QIAGEN). To be more specific, Real-time PCR was performed by the following method.
(§5) The model used for Real-time PCR was ABI PRISM 7000 (Applied Biosystems), and the reagents used were Real-time PCR Master Mix (TOYOBO) and Pre-Developed TaqMan & reg; Assay Reagents Eukaryotic 18S rRNA (Applied Biosystems), TaqMan & reg; Probe kit (Applied Biosystems).
(§6) At 50° C. for 2 minutes, at 95° C. for 10 minutes (at 95° C. for 15 seconds, at 60° C. for 1 minute)×40 cycles.

[3] = tested on: aggrecan mRNA; assay: Aggrecan mRNA amount in cartilage cells by addition of artificial collagen aqueous solution (real-time PCR); type: cell-based, New Zealand white rabbits; conditions: relative to 0% defined as 1
Description: as §1, §2, §3, §4, §5, §6

[4] = tested on: cartilage cells; assay: Proteoglycan production ability of cartilage cells (Na2 35SO4 incorporation) by addition of artificial collagen aqueous solution; type: cell-based, New Zealand white rabbits; conditions: 7 days, vs 0% control
Description: as §1
as §2, with “and” for “and then”, “6-well” for “12-well”, “1.5×10^6 cells/well” for “3×10^5 cells/well,”, “cultivated” for “cultivation was started”
At 24 hours after the start of the cultivation, a 1% (W/V) artificial collagen aqueous solution was diluted with a cultivation medium to prepare 0.10, 0.20, 0.30, 0.40, and 0.50% (W/V) artificial collagen aqueous solutions. The artificial collagen aqueous solutions were allowed to act on the cells for an additional 7 days, and further supplemented with 10 μCi/ml Na2^35SO4 to perform cultivation for the last 24 hours. A medium exchange was performed once every 3 days. It should be noted that a 0% (W/V) artificial collagen aqueous solution was used as a control.
After the completion of the above-mentioned cultivation, the cells were washed with a fresh cultivation medium, and a lysis buffer (4 M GuHCl, 0.05 M NaAC, pH 6.0) supplemented with protease inhibitors (0.1 M 6-aminohexanoic acid, 0.005 M benzamidine hydrochloride, 0.01 M Nae EDTA, 0.01 M N-ethylmaleimide, and 0.001 M phenylmethyl sulfonyl fluoride) was added into each well. The cells were extracted at 4° C. for 4 hours, and centrifuged at 15000 rpm at 4° C. for 20 minutes.
The cells were eluted with an elution buffer (4 M GuHCl, 0.05 M Na acetate, 0.1 M Na sulfate, and 0.5% Triton X-10 (pH 7.5)) by using a PD-10 pre-packed column (GE Healthcare Bio-Sciences Ltd.) to fractionate samples. To each of the fractionated samples, ethanol and a scintillator were added and mixed, and the radioactivity content (cpm) was measured with a liquid scintillation counter. Further, the DNA amount of each of the samples used in this case was measured with a Hoechst 33258 dye to determine a DNA value expressed as cpm/mg.

Substance: Poly(Tripeptide-6) [artificial collagen aqueous solution]
- modified ICRS score vs control group ([1]; 0.1% (W/V), intraarticular 0.1 ml/kg on Week 1, 3, 5, Week 7, Mann-Whitney U test): significant difference
- macroscopic observation of knee joints ([1]; 0.1% (W/V), intraarticular 0.1 ml/kg on Week 1, 3, 5): many knee joints have smooth surfaces
- Safranin-0-stained area ratio compared to control group ([1]; 0.1% (W/V), Week 7): larger
- Safranin-0 stained area compared to control group ([1]; 0.1% (W/V), Week 7): larger
- type 2 collagen antibody-immunostained area compared to control group ([1]; 0.1% (W/V), Week 7): larger
- type 2 collagen antibody-immunostained area ratio compared to control group ([1]; 0.1% (W/V), Week 7): larger
- macroscopic observation of knee joints ([1]; 0.5% (W/V), intraarticular 0.1 ml/kg on Week 1, 3, 5): many sparse fissures
- Safranin-0-stained area ratio compared to control group ([1]; 0.5% (W/V), Week 7): larger
- Safranin-0 stained area compared to control group ([1]; 0.5% (W/V), Week 7): larger
- type 2 collagen antibody-immunostained area compared to control group ([1]; 0.5% (W/V), Week 7): larger
- type 2 collagen antibody-immunostained area ratio compared to control group ([1]; 0.5% (W/V), Week 7): larger
- type 2 collagen mRNA expression ([2]; Day 4, 0.10% (W/V)): significantly enhanced
- type 2 collagen mRNA expression ([2]; Day 7, 0.40% (W/V)): lowered
- type 2 collagen mRNA expression ([2]; Day 7, 0.50% (W/V)): lowered
- type 2 collagen mRNA expression ([2]; Day 21, 0.40% (W/V)): lowered
- type 2 collagen mRNA expression ([2]; Day 21, 0.50% (W/V)): lowered
- aggrecan mRNA amount ([3]; Day 4, the respective concentrations (0.10 to 0.50% (W/V))): no significant change
- aggrecan mRNA amount ([3]; Day 7, the respective concentrations (0.10 to 0.50% (W/V))): no significant change
- aggrecan mRNA amount ([3]; Day 21, 0.20% (W/V)): significantly lowered
- aggrecan mRNA amount ([3]; Day 21, 0.30% (W/V)): significantly lowered
- aggrecan mRNA amount ([3]; Day 21, 0.40% (W/V)): significantly lowered
- aggrecan mRNA amount ([3]; Day 21, 0.50% (W/V)): significantly lowered
- proteoglycan production ([4]; 0.10% (W/V)): significantly enhanced
- proteoglycan production ([4]; 0.20% (W/V)): significantly enhanced
- proteoglycan production ([4]; 0.30% (W/V)): significantly enhanced
- proteoglycan production ([4]; 0.40% (W/V)): significantly enhanced
- proteoglycan production ([4]; 0.50% (W/V)): significantly enhanced
